For one compound, AoR, AOR and FFC results are on record in patent US8993041B2, “Taste masked active pharmaceutical powder compositions and processes for making them” (New Jersey Institute of Technology, priority 2012, dated 2015).

The nature of series [1]: Angle of repose (AoR/AOR) of powder. Format: physicochemical. From the text: Both of these ibuprofen powders could not be fluidized sufficiently prior to coating, yet both of the coated ibuprofen particles were well fluidized after dry coating.
The operating conditions for coating step 2 may be established by a skilled person giving consideration, for example, to particle agglomeration and providing reduced angle of repose (AOR) values for the coated API powder. The degree of particle agglomeration may be determined by measuring the size of the coated particles in SEM images. The degree of agglomeration may also be estimated using the dispersion pressure titration in the Rodos/Helos system (Rodos and Helos, Sympatec, Lawrenceville, N.J., USA). A discussion of the pressure titration may be found in Han, X., Ghoroi, C., To, D., Chen, Y., Davë, R., “Simultaneous micronization and surface modification for improvement of flow and dissolution of drug particles (2011).” International Journal of Pharmaceutics, vol. 415, pp. 185-195, which is incorporated in its entirety by reference. The AOR may be measured using the procedure of ASTM D6393-99, “Bulk Solids Characterization by CARR Indices.” For example, when the Comil is used, the impeller speed may be optimized to reduce the agglomeration (FIG. 3) as higher impeller speed […] agglomerate size for the silica coated API powders.
M5P hydrophilic silica has a particle size of 20 nm and is manufactured by Cabot

The nature of series [2]: Flow function coefficient (FFC), shear cell of FT 4 tester. In kind it is physicochemical.
[3] abbreviates: finer ibuprofen powder, median size about 41 micron.

Turning to `CC(C)Cc1ccc(C(C)C(=O)O)cc1` (centres unmarked) [ibuprofen], the AoR result in series [1] (setting [3]) is on record as “about 58 degrees”; in series [1] (ibuprofen median particle size about 74 micron, Hosokawa Powder Tester, ASTM D6393-08), “about 55 degrees”. The same compound had an AOR in series [1] (flow properties of ibuprofen before and after dry coating with silica) of 55 °. Further, the FFC result is listed as “about 2.8” in series [2] (setting [3]) and “about 5” in series [2] (ibuprofen median particle size about 74 micron, pre-consolidation of 3 kPa).
